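Following 48 hours of exposure in 96-well plates, responses at five concentrations were used to interpolate endpoints linearly. The concentration for 50% growth inhibition is given as GI50. TGI: total growth inhibition.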
Experiments:
Test in all cases: inhibition of tumour cell growth, NCI panel, 48 h
MALME-3M melanoma = system: MALME-3M melanoma
NCI/ADR-RES ovarian = system: NCI/ADR-RES ovarian
RPMI-8226 leukemia = system: RPMI-8226 leukemia
SF-268 CNS = system: SF-268 CNS
SF-295 CNS = system: SF-295 CNS
SF-539 CNS = system: SF-539 CNS
SK-MEL-5 melanoma = system: SK-MEL-5 melanoma
SN12C renal = system: SN12C renal
SW-620 colon = system: SW-620 colon
UACC-62 melanoma = system: UACC-62 melanoma

Structure (SMILES)	TGI (MALME-3M melanoma)	TGI (NCI/ADR-RES ovarian)	TGI (RPMI-8226 leukemia)	TGI (SF-268 CNS)	TGI (SF-295 CNS)	TGI (SF-539 CNS)	TGI (SK-MEL-5 melanoma)	TGI (SN12C renal)	TGI (SW-620 colon)	TGI (UACC-62 melanoma)	GI50 (NCI/ADR-RES ovarian)	GI50 (RPMI-8226 leukemia)	GI50 (SF-268 CNS)	GI50 (SF-295 CNS)	GI50 (SF-539 CNS)	GI50 (SK-MEL-5 melanoma)	GI50 (SN12C renal)	GI50 (SW-620 colon)	GI50 (UACC-62 melanoma)	GI50 (MALME-3M melanoma)
CC/C(Cl)=N\OC(=O)Nc1ccc(F)c([N+](=O)[O-])c1	4.35 µM	75.8 µM	> 25.3 µM	36.4 µM	41.6 µM	> 100 µM	29.5 µM	47.1 µM	33.6 µM	35.8 µM										
O=C1CCCc2cc3c(cc21)CC1(C3)Cc2ccc3c(c2C1)C(=O)CCC3 (centres undefined)	43.6 µM	37 µM	50.8 µM	> 100 µM	> 100 µM	> 100 µM	7.66 µM	> 100 µM	> 100 µM											
COc1ccc(N=NC(=Nc2ccc(F)cc2)c2ccc(N(CCC#N)CCC#N)cc2)cc1		> 100 µM	> 100 µM	> 100 µM	> 100 µM	> 100 µM	> 100 µM	> 100 µM	> 100 µM	57.3 µM										
CCOC(=O)C1(C(=O)OCC)CCCN1C(=O)[C@H](CNC(=O)OC(C)(C)C)NC(=O)OCc1ccccc1		> 100 µM	> 100 µM	> 100 µM	> 100 µM	> 100 µM	> 100 µM	> 100 µM	> 100 µM											
O=C1c2cccc(NCCNCCO)c2C(=O)c2cccc(NCCNCCO)c21	3.65 µM	30.9 µM	> 32.3 µM	2.15 µM	5.77 µM	2.74 µM	3.39 µM	5.82 µM	11 µM	3.81 µM										
O=[N+]([O-])c1ccc(C2=Nc3ccccc3SC(c3ccccc3)C2)cc1 (centres undefined)			48.4 µM	63.3 µM	46.3 µM	40.3 µM	32.9 µM	32.2 µM	27.8 µM	27.3 µM										
CCCOC(=O)NC(C)C(=O)NC(CCC(=O)NC(CCCC(N)C(=O)O)C(=O)NC(C)C(=O)O)C(=O)O (centres undefined)		37 µM	32.2 µM	42.3 µM	30.9 µM	31.3 µM	30.5 µM	> 100 µM	62.3 µM	33.7 µM										
CCOC(=O)C1CN(C2CC2)CCC1=O (centres undefined)	> 100 µM	> 100 µM	> 100 µM	> 100 µM	> 100 µM		> 100 µM	> 100 µM	> 100 µM	> 100 µM										
CCc1nc2cc3cccnc3c(Cl)c2[nH]c1=O	> 100 µM	> 100 µM	> 100 µM	> 100 µM	> 100 µM		> 100 µM	> 100 µM	> 100 µM	> 100 µM										
COc1cc2c(c(O)c1O)-c1ccc(OC)c(=O)cc1C(NC(C)=O)CC2 (centres undefined)	> 100 µM		> 43.7 µM	> 100 µM	41.4 µM	24 µM	16.2 µM	> 80.8 µM	51.6 µM	45.7 µM										
COC(=O)[C@H](C)NC(=O)[C@H](CSC)N1C(=O)N[C@@H](C(C)C)C1=O	> 100 µM	> 100 µM	> 100 µM		> 100 µM	> 100 µM	> 100 µM	> 100 µM	> 100 µM	> 100 µM										
CCCCN(CCCC)C(=C(C(Cl)=C(Cl)Cl)[N+](=O)[O-])N(CCCC)CCCC	> 100 µM	> 100 µM	58.7 µM	> 100 µM	> 100 µM	> 100 µM	> 100 µM	> 100 µM		> 100 µM										
O=C(CNCc1ccccc1)Oc1c(Cl)c(Cl)c(Cl)c(Cl)c1Cl	65.3 µM	> 100 µM		> 100 µM	92.9 µM	95.6 µM		> 100 µM	84.5 µM	51.5 µM										
O=C1CCc2ccc3c(c21)CC1(Cc2ccccc2C1)C3	70.5 µM	53.6 µM	> 100 µM	> 100 µM	38 µM	> 100 µM	11.4 µM	> 100 µM	> 100 µM											
COC(=O)C1=C(O)C(C(=O)OC)[C@@]2(O)[C@@H](C(=O)OC)[C@H](C)[C@@H](C)[C@@H]1[C@@H]2C(=O)OC (some centres undefined)	> 100 µM		> 100 µM	> 100 µM		> 100 µM		> 100 µM		> 100 µM										
CSC(SC)=C1C(=O)N(c2ccccc2)N=C1C	58.8 µM	> 100 µM		> 100 µM	99.6 µM	> 100 µM	24.3 µM	97.3 µM	> 100 µM	89.9 µM										
COc1ccc2c(c1)CCN=C2c1ccccc1CCCCl		> 100 µM	11.8 µM	> 100 µM	> 100 µM	45.6 µM	13.3 µM	54.4 µM	> 100 µM	> 100 µM										

Structure (SMILES)	TGI (MALME-3M melanoma)	TGI (NCI/ADR-RES ovarian)	TGI (RPMI-8226 leukemia)	TGI (SF-268 CNS)	TGI (SF-295 CNS)	TGI (SF-539 CNS)	TGI (SK-MEL-5 melanoma)	TGI (SN12C renal)	TGI (SW-620 colon)	TGI (UACC-62 melanoma)	GI50 (NCI/ADR-RES ovarian)	GI50 (RPMI-8226 leukemia)	GI50 (SF-268 CNS)	GI50 (SF-295 CNS)	GI50 (SF-539 CNS)	GI50 (SK-MEL-5 melanoma)	GI50 (SN12C renal)	GI50 (SW-620 colon)	GI50 (UACC-62 melanoma)	GI50 (MALME-3M melanoma)
CCOC(=O)C(C)c1nc2c(Cl)c3ncccc3cc2[nH]c1=O (centres undefined)	> 100 µM	> 100 µM	> 100 µM	> 100 µM	> 100 µM		> 100 µM	> 100 µM	> 100 µM	> 100 µM										
CCOC(=O)[C@@H]1ON2O[C@@H](OC3CCCC3(c3ccccc3)c3ccccc3)C[C@H]3OC(=O)[C@@H]1C32 (some centres undefined)		> 100 µM	90.6 µM	70.2 µM	> 100 µM	68 µM	> 100 µM	80.3 µM	64.5 µM	42.2 µM										
Cc1ccc(-c2c(C#N)c(-c3ccc([N+](=O)[O-])cc3)c(C#N)c(=O)n2NS(=O)(=O)c2ccccc2)cc1	> 100 µM	> 100 µM		> 100 µM	> 100 µM	> 100 µM	26.9 µM	> 100 µM	> 100 µM	64 µM										
COC(=O)[C@H](Cc1ccccc1)NC(=O)c1ccc(CNC(=O)/C=C/c2cccc(Oc3ccccc3)c2)cc1	30.4 µM	> 100 µM	> 100 µM	59.3 µM	> 100 µM		36.9 µM	75.9 µM	> 100 µM	24 µM										
COC(=O)C1(Cc2ccc3c(c2)CCC3)Cc2cc3c(cc2C1)CCC3		> 100 µM	> 100 µM	> 100 µM	> 100 µM	> 100 µM	> 100 µM	> 100 µM	> 100 µM	> 100 µM										
COc1ccc(-c2csc(NC(=O)CSc3nc(C)c(-c4ccccc4)n3Nc3ccccc3)n2)cc1		> 100 µM	> 100 µM	> 100 µM	> 100 µM	> 100 µM	> 100 µM	> 100 µM	> 100 µM	> 100 µM	4.21 µM	6.74 µM	9.05 µM	0.566 µM	> 100 µM	4.45 µM	4.03 µM	51.9 µM	7.35 µM	
O=C(O)CC(NC(=O)/C(=C/c1ccccc1O)NC(=O)c1ccccc1)C(=O)O (centres undefined)	> 100 µM	> 100 µM	> 100 µM		> 100 µM	> 100 µM	> 100 µM	> 100 µM	> 100 µM	> 100 µM										
Nc1nc(Nc2ccc(Cl)cc2)sc1C(=O)c1cccs1	> 100 µM	> 100 µM	> 100 µM	83.4 µM		61 µM	> 100 µM	50.6 µM	> 100 µM	> 100 µM										
CCCCC/C(C=O)=C\c1ccccc1		> 100 µM	> 100 µM	> 100 µM	> 100 µM	> 100 µM	> 100 µM		> 100 µM	> 100 µM										
CC(C)CCn1nc(N)c2nc3ccccc3nc21	> 100 µM	> 100 µM	> 100 µM	> 100 µM	> 100 µM	> 100 µM		> 100 µM	> 100 µM	> 100 µM										
C=C(C)[C@@]1(O[Si](C)(C)C)CCCC[C@@H]1CC(Sc1ccccc1)Sc1ccccc1	24.4 µM	32 µM	49.3 µM	28.2 µM	25.5 µM	26.5 µM	34.8 µM		30.2 µM	26.9 µM										
CC1(C)[C@@H](Cn2cnc3c(Cl)nc(N)nc32)CC[C@@]1(C)CO		> 100 µM	89.2 µM	43.3 µM	> 100 µM	> 100 µM	47.3 µM	> 100 µM	> 100 µM	38 µM										
C[C@]1(S(=O)(=O)c2ccccc2)C[C@H]2N(Cc3ccccc3)[C@@H]1CCC21OCCO1	> 100 µM	> 100 µM		> 100 µM	> 100 µM		> 100 µM	> 100 µM	> 100 µM	> 100 µM										
CC(C)(C)C(=O)C(Cc1ccccc1)C(=O)C(C)(C)C	> 100 µM	> 100 µM	> 100 µM	> 100 µM	> 100 µM	> 100 µM	> 100 µM	> 100 µM	> 100 µM											
c1csc(-c2c3ccc(=[N+]4CCCCC4)cc-3oc3cc(N4CCCCC4)ccc23)c1	0.0822 µM					0.195 µM	0.276 µM			0.356 µM					0.0446 µM	0.141 µM			0.159 µM	0.027 µM
CC(C)(C)OC(=O)n1c(-c2ccccc2F)cc(=O)c2cc3c(cc21)OCO3	> 100 µM	0.0555 µM	20.7 µM	> 100 µM	> 100 µM	> 72.9 µM	1.2 µM		> 100 µM	> 100 µM										

From PubChem BioAssay (NCI)
